{
  "source": "patent US20240050512A1",
  "about": "“REDUCTION OF VIRAL INFECTIONS” (priority 2020, published 2024)",
  "target": "T1, cathepsin L protease (Homo sapiens, UniProt P07711)",
  "T1 construct": "purchased BPS Bioscience",
  "T1 sequence (P07711 114-333)": "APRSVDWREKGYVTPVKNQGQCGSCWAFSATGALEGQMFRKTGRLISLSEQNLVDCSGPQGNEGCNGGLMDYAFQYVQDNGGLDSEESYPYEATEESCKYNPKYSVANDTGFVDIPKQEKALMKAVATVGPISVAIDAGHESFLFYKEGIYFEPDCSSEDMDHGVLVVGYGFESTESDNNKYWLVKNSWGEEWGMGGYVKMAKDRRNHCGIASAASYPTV",
  "test": "Protease inhibition, cell-free fluorogenic kit (BPS Bioscience)",
  "format": "biochemical",
  "data": [
    {"smiles": "CC(C)C[C@H](NC(=O)[C@H]1O[C@@H]1C(=O)O)C(=O)NCCCCN=C(N)N", "note": "[Composition E-64, E-64]", "values": [
      {"measurement": "Percentage inhibition", "setting": "0.0001 μM", "result": "−15.5", "unit": "%"},
      {"measurement": "Percentage inhibition", "setting": "0.001 μM", "result": "−1.1 ^ %"}
    ]}
  ]
}
